Test results from patent US20240199546A1, “INHIBITORS OF SOLUTE CARRIER FAMILY 6A MEMBER 19 (SLC6A19) AND METHODS OF USE THEREOF” (Maze Therapeutics, Inc., priority 2022, published 2024).

How the values were obtained:
human SLC6A19 and TMEM27 [1] = molecular target: T1, human SLC6A19 and TMEM27 (Homo sapiens, UniProt Q695T7); experiment: Radiolabelled (3H) leucine uptake in CHO cells with doxycycline-inducible expression of human SLC6A19 and TMEM27 (Example B-1); format: cell-based; conditions: CHO cells with doxycycline-inducible expression of human SLC6A19 and TMEM27, read-out: SLC6A19_Radioligand Uptake Assay IC50
T1 construct: expressed in transfected cells
T1 sequence (Q695T7 1-634): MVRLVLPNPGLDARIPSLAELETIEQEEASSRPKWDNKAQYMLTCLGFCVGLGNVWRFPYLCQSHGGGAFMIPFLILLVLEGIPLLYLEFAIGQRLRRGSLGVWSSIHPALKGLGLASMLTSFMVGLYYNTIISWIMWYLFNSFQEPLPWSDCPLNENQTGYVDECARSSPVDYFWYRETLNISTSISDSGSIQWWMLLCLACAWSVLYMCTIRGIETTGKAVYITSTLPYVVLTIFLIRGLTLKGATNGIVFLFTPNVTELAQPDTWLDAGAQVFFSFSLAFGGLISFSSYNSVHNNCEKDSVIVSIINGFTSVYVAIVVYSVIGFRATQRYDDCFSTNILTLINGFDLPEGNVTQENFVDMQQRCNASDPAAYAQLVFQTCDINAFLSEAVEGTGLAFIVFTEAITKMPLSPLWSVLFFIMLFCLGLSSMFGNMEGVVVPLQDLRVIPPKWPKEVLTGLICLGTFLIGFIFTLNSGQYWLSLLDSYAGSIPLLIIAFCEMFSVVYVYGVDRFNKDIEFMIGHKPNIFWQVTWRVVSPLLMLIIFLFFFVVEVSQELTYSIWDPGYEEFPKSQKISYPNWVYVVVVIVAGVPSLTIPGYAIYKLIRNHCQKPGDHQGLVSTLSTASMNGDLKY
T1 sequence (Q9HBJ8 15-222 partner): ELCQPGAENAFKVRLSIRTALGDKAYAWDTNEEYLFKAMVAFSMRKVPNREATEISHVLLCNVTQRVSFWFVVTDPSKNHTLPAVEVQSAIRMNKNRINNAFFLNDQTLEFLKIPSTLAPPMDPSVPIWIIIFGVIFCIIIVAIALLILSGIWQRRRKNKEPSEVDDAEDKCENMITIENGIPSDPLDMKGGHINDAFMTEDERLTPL
Method in brief: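 CHO cells were induced with doxycycline for 18 h at 37 °C, washed in HBSS, then exposed to compounds for 1 h: 8-point, 3-fold dilutions in duplicate, 0.5% DMSO final. Uptake measured by scintillation counting after 2 h shaking. Activity normalized with positive control as 0% and DMSO as 100%.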

human SLC6A19 and TMEM27 [2] = molecular target: T1, human SLC6A19 and TMEM27; experiment: 13C6,15N-isoleucine uptake in CHO cells with doxycycline-inducible expression of human SLC6A19 and TMEM27, RapidFire mass spectrometry (Example B-2); format: cell-based; conditions: read-out: SLC6A19_RapidFire Uptake Assay IC50
Method in brief: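 CHO cells induced overnight with doxycycline to express human SLC6A19 plus TMEM27; 20 min preincubation with compound (10-point 2-fold series, duplicate) at 37 °C in HEPES buffer pH 7.2, then 20 min with 13C6,15N-isoleucine. Intracellular label quantified by RapidFire MS against 13C-leucine standard; positive control defined 100% inhibition.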

IC50 (human SLC6A19 and TMEM27 [1])	IC50 (human SLC6A19 and TMEM27 [2])	Compound
317 nM	66.7 nM	O=C(NCc1cc2cc(Cl)c(OCc3ccccn3)cc2[nH]1)C1CC1 [Compound 503, N-((5-chloro-6-(pyridin-2-ylmethoxy)-1H-indol-2-yl)methyl)cyclopropanecarboxamide]
187 nM	84 nM	O=C(NCc1cc2cc(Cl)c(OCc3ccon3)cc2[nH]1)C1(C(F)(F)F)CC1 [Compound 134, N-((5-chloro-6-(isoxazol-3-ylmethoxy)-1H-indol-2-yl)methyl)-1-(trifluoromethyl)cyclopropane-1-carboxamide]
891 nM	379 nM	CC1(C(=O)NCc2cc3cc(Cl)c(OCc4ccsc4Cl)cc3[nH]2)CC1 [Compound 321, N-((5-chloro-6-((2-chlorothiophen-3-yl)methoxy)-1H-indol-2-yl)methyl)-1-methylcyclopropane-1-carboxamide]
478 nM	498 nM	Cc1nc(COc2cc3[nH]c(CNC(=O)N4CCC4)cc3cc2Cl)co1 [Compound 408, N-((5-chloro-6-((2-methyloxazol-4-yl)methoxy)-1H-indol-2-yl)methyl)azetidine-1-carboxamide]
172 nM	221 nM	CC1(C(=O)NCc2cc3ccc(OCc4cccc(F)n4)cc3[nH]2)CC1 [Compound 33, N-((6-((6-fluoropyridin-2-yl)methoxy)-1H-indol-2-yl)methyl)-1-methylcyclopropane-1-carboxamide]
149 nM	45 nM	O=C(NCc1cc2cc(Cl)c(OCc3cscn3)cc2[nH]1)N1CCCC1 [Compound 82, N-((5-chloro-6-(thiazol-4-ylmethoxy)-1H-indol-2-yl)methyl)pyrrolidine-1-carboxamide]
139 nM	49.3 nM	O=C(NCc1cc2cc(Cl)c(OCc3cscn3)cc2[nH]1)C1(F)CC1 [Compound 231, N-((5-chloro-6-(thiazol-4-ylmethoxy)-1H-indol-2-yl)methyl)-1-fluorocyclopropane-1-carboxamide]
2130 nM	1780 nM	CC1(C(=O)NCc2cc3cc(F)c(OCc4ccon4)cc3[nH]2)CCC1 [Compound 502, N-((5-fluoro-6-(isoxazol-3-ylmethoxy)-1H-indol-2-yl)methyl)-1-methylcyclobutane-1-carboxamide]
156 nM	80.8 nM	CC(=O)NCc1cc2cc(Cl)c(OCc3cccc(F)n3)cc2[nH]1 [Compound 225, N-((5-chloro-6-((6-fluoropyridin-2-yl)methoxy)-1H-indol-2-yl)methyl)acetamide]
1080 nM	480 nM	CC1(C(=O)NCc2cc3cc(Cl)c(OCc4ccc(Cl)s4)cc3[nH]2)CC1 [Compound 320, N-((5-chloro-6-((5-chlorothiophen-2-yl)methoxy)-1H-indol-2-yl)methyl)-1-methylcyclopropane-1-carboxamide]
787 nM	714 nM	CC(=O)NCc1cc2cc(F)c(OCc3cc(C)on3)cc2[nH]1 [Compound 205, N-((5-fluoro-6-((5-methylisoxazol-3-yl)methoxy)-1H-indol-2-yl)methyl)acetamide]
1440 nM	1140 nM	CC(C)(C)C(=O)NCc1cc2cc(Cl)c(OCc3ccon3)cc2[nH]1 [Compound 493, N-((5-chloro-6-(isoxazol-3-ylmethoxy)-1H-indol-2-yl)methyl)pivalamide]
261 nM	71 nM	CC1(C(=O)NCc2cc3cc(Cl)c(OCc4ccccn4)cc3[nH]2)CC1 [Compound 41, N-((5-chloro-6-(pyridin-2-ylmethoxy)-1H-indol-2-yl)methyl)-1-methylcyclopropane-1-carboxamide]
313 nM	217 nM	Cc1nc(COc2cc3[nH]c(CNC(=O)N4CCCC4)cc3cc2Cl)co1 [Compound 411, N-((5-chloro-6-((2-methyloxazol-4-yl)methoxy)-1H-indol-2-yl)methyl)pyrrolidine-1-carboxamide]
1410 nM	3740 nM	CNC(=O)NCc1cc2cc(F)c(OCc3ccon3)cc2[nH]1 [Compound 216, 1-((5-fluoro-6-(isoxazol-3-ylmethoxy)-1H-indol-2-yl)methyl)-3-methylurea]
407 nM	519 nM	O=C(NCc1cc2cc(Cl)c(OCc3cocn3)cc2[nH]1)N1CCC1 [Compound 403, N-((5-chloro-6-(oxazol-4-ylmethoxy)-1H-indol-2-yl)methyl)azetidine-1-carboxamide]
263 nM	155 nM	CC1(C(=O)NCc2cc3cc(Cl)c(OCc4cccnc4F)cc3[nH]2)CC1 [Compound 30, N-((5-chloro-6-((2-fluoropyridin-3-yl)methoxy)-1H-indol-2-yl)methyl)-1-methylcyclopropane-1-carboxamide]

The next lines start with the compound.

Compound	IC50 (human SLC6A19 and TMEM27 [1])	IC50 (human SLC6A19 and TMEM27 [2])
O=C(NCc1cc2cc(F)c(OCc3ccon3)cc2[nH]1)C1CCC1 [Compound 431, N-((5-fluoro-6-(isoxazol-3-ylmethoxy)-1H-indol-2-yl)methyl)cyclobutanecarboxamide]	244 nM	343 nM
CC1(C(=O)NCc2cc3cc(F)c(CCc4ccon4)cc3[nH]2)CC1 [Compound 592, N-((5-fluoro-6-(2-(isoxazol-3-yl)ethyl)-1H-indol-2-yl)methyl)-1-methylcyclopropane-1-carboxamide]	163 nM	93.1 nM
CC1(C(=O)NCc2cc3cc(Cl)c(NCc4cscn4)cc3[nH]2)CC1 [Compound 452, N-((5-chloro-6-((thiazol-4-ylmethyl)amino)-1H-indol-2-yl)methyl)-1-methylcyclopropane-1-carboxamide]	145 nM	63.6 nM
Cc1cc(COc2cc3[nH]c(CNC(=O)C4(C)CC4)cc3cc2F)on1 [Compound 12, N-((5-fluoro-6-((3-methylisoxazol-5-yl)methoxy)-1H-indol-2-yl)methyl)-1-methylcyclopropane-1-carboxamide]	79 nM	144 nM
Cc1cc(CCOc2cc3[nH]c(CNC(=O)C4(C)CC4)cc3cc2Cl)no1 [Compound 99, N-((5-chloro-6-(2-(5-methylisoxazol-3-yl)ethoxy)-1H-indol-2-yl)methyl)-1-methylcyclopropane-1-carboxamide]	158 nM	81 nM
CC1(C(=O)NCc2cc3cc(CC(F)(F)F)c(OCc4ccon4)cc3[nH]2)CC1 [Compound 649, N-((6-(isoxazol-3-ylmethoxy)-5-(2,2,2-trifluoroethyl)-1H-indol-2-yl)methyl)-1-methylcyclopropane-1-carboxamide]	326 nM	217 nM
CC1(C(=O)NCc2cc3ccc(CCc4cscn4)cc3[nH]2)CC1 [Compound 76, 1-methyl-N-((6-(2-(thiazol-4-yl)ethyl)-1H-indol-2-yl)methyl)cyclopropane-1-carboxamide]	100 nM	34 nM
O=C(NCc1cc2cc(Cl)c(NCc3cscn3)cc2[nH]1)N1CCCC1 [Compound 414, N-((5-chloro-6-((thiazol-4-ylmethyl)amino)-1H-indol-2-yl)methyl)pyrrolidine-1-carboxamide]	339 nM	281 nM
CN(Cc1cn[nH]c1)C(=O)NCc1cc2ccc(OCc3ccon3)cc2[nH]1 [Compound 627, 1-((1H-pyrazol-4-yl)methyl)-3-((6-(isoxazol-3-ylmethoxy)-1H-indol-2-yl)methyl)-1-methylurea]	> 8730 nM	12100 nM
CC1(C(=O)NCc2cc3cc(CC(F)(F)F)c(OCc4cscn4)cc3[nH]2)CC1 [Compound 648, 1-methyl-N-((6-(thiazol-4-ylmethoxy)-5-(2,2,2-trifluoroethyl)-1H-indol-2-yl)methyl)cyclopropane-1-carboxamide]	785 nM	344 nM
CC1CN(C(=O)NCc2cc3cc(F)c(OCc4cscn4)cc3[nH]2)C1 [Compound 357, N-((5-fluoro-6-(thiazol-4-ylmethoxy)-1H-indol-2-yl)methyl)-3-methylazetidine-1-carboxamide]	413 nM	434 nM
Cc1cc(COc2cc3[nH]c(CNC(=O)N4CCC4)cc3cc2F)on1 [Compound 481, N-((5-fluoro-6-((3-methylisoxazol-5-yl)methoxy)-1H-indol-2-yl)methyl)azetidine-1-carboxamide]	318 nM	297 nM
